Legend:
[1] = target: T1, human macrodomain MacroD2 (Homo sapiens, UniProt A1Z1Q3); experiment: HTRF peptide displacement assay, human MacroD2; type: binding; details: result in words
T1 construct: MacroD2_HTRF; HTRF assay; pET22b(+); His6, TEV, Avi; 2-425; made in house
T1 sequence (A1Z1Q3 with tags, fused parts or gaps): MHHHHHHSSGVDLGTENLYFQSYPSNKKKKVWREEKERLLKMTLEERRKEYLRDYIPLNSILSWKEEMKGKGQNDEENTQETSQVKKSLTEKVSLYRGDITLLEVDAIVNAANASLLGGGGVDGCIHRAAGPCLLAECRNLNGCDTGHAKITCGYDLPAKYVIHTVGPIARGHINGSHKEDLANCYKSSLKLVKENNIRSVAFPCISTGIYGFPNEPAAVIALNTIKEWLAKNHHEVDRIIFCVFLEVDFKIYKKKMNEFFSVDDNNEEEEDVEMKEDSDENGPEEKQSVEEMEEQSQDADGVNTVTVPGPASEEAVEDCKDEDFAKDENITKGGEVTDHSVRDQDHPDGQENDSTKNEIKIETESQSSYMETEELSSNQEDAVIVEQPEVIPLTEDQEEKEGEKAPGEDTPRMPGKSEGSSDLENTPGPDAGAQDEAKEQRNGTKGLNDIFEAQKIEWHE

Microsomal stability = type: in vitro ADME, mouse
Method: The assay was carried out in 96-well plates at 37°C. Reaction mixtures (25 μl) contained a final concentration of 1 μM compound, liver microsome protein (0.5 mg/ml), and 1 mM NADPH (reduced form of nicotinamide adenine dinucleotide phosphate) and/or 1 mM uridine diphosphate glucuronic acid (with alamethicin) in 100 mM potassium phosphate (pH 7.4) with 3 mM MgCl2. After 0, 15, 30, and 60 min, 150 μl of quench solution (100% acetonitrile with 0.1% formic acid) with an internal standard was transferred to each well. Reactions containing the same components, except NADPH, were prepared as the negative control.
The extent of metabolism was calculated as the disappearance of compounds compared to the 0-min time incubation.

human macrodomain Targ1 = target: T2, human macrodomain Targ1 (Homo sapiens, UniProt Q9Y530); experiment: HTRF peptide displacement assay, human Targ1; type: binding; details: result in words
T2 construct: Targ1_HTRF; HTRF assay; pET22b(+); His6, TEV; 1-153; made in house
T2 sequence (Q9Y530 with tags, fused parts or gaps): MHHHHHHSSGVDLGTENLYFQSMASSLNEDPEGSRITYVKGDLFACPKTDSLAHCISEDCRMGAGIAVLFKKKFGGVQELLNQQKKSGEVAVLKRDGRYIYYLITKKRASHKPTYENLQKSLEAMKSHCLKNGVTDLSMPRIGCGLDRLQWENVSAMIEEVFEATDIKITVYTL

[2] = target: T3, SARS-CoV-2 NSP3 macrodomain (Mac1) (Severe acute respiratory syndrome coronavirus 2, UniProt P0DTD1); type: binding
[3] = target: T3, SARS-CoV-2 NSP3 macrodomain (Mac1); experiment: biochemical; type: binding
Caco-2 cells = details: Caco-2, compound concentration 5
Method: Caco-2 cell plates were obtained commercially and were maintained for 21 days at 37°C with 5% CO2. Cells were washed with Hank’s balanced salt solution with 5 mM Hepes for 30 min before starting the experiment. Test compound solutions are prepared by diluting DMSO stock into Hank’s balanced salt solution buffer, resulting in a final DMSO concentration of 0.1%. Before the assay, cell monolayer integrity was verified by […] electrical resistance to ensure that wells have resistance above the acceptance cutoff (1 kilohm). Transport experiments were initiated by adding test compounds to the apical (75 μl) or basal (250 μl) side. Transport plates were incubated at 37°C in a humidified incubator with 5% CO2. Samples were taken from the donor and acceptor compartments after 1 hour and analyzed by liquid chromatography–tandem mass spectrometry (LC-MS/MS) using an AB Sciex API 4000 instrument coupled to a Shimadzu LC-20 AD LC Pump system. Samples were separated using a Waters Atlantis T3 dC18 reverse phase HPLC column (20 mm by 2.1 mm) at a flow rate of 0.5 ml/min. The mobile phase consisted of 0.1% formic acid in acetonitrile (solvent A) and 0.1% formic acid in water (solvent B).
Apparent permeability (Papp) values were calculated using the following equation Papp=(dQ/dt)/A/C0 where dQ/dt is the initial rate of compound transport across the cell monolayer, A is the surface area of the filter membrane, and C0 is the initial concentration of the test compound, calculated for each direction using a four-point calibration curve by LC-MS/MS.
The net flux ratio between the two directional transports was calculated by the following equation Ratio=PappB−A/PappA−B where PappB-A and PappA-B represent the apparent permeability of compounds from the basal-to-apical and apical-to-basal sides of the cellular monolayer, respectively. Recovery was calculated on the basis of the compound concentration at the end of the experiment compared to that at the beginning of the experiment, adjusted for volumes.

Mac1 = details: cited from earlier work
[4] = crystal soak 10 mM, P43 crystal form
[5] = crystal soak 10 mM, DMSO background map

CC(c1ccccc1)C(CO)Nc1ncnc2[nH]ccc12 (stereo not drawn) [AVI-3669]
Kinetic solubility (uM), mean (Kinetic solubility; DMSO concentration 5%): 529 µM | Mean solubility (Kinetic solubility; phosphate-buffered saline pH 7.4, triplicate): 529 µM | showed binding to the human macrodomain MacroD2 [1]: none | T1/2 (min), mean (Microsomal stability; Mouse microsome stability assay): 8.3 min | CLint (mouse) (Microsomal stability; intrinsic clearance from t1/2): 166.4 µl/min/mg protein | showed binding to the human macrodomain Targ1 (human macrodomain Targ1): none | Occupancy difference (refined_occupancy - 2*(1-BDC)) [2]: 0 | 1-BDC ([2]; PanDDA background density correction factor): 0.14 | X-ray crystal structure ([2]; TRUE = crystal structure with ligand obtained): TRUE | PanDDA run, overall: Hit [2, 4]: TRUE | PanDDA run, overall: Modeled [2, 4]: TRUE | PanDDA run, DMSO background map: 1-BDC [2, 5]: 0.14 | PanDDA run, DMSO background map: Hit [2, 5]: TRUE | Total number of conformations ([2]; ligand conformations modeled in the crystal structure): 1 | 2*(1-BDC) (%) ([2]; occupancy estimate from PanDDA): 28% | Refined ligand occupancy (%) ([2]; refined crystallographic occupancy): 28% | Binding site ([2]; site of ligand in X-ray crystal structure): Adenosine | Hill slope ([3]; HTRF binding curve, SARS-CoV-2 Mac1): 1.2 | Hill slope ([3]; SARS CoV-2 macrodomain HTRF assay, dose-response): 1.2 | Recover Rate (%) (Caco-2 cells): 93%

CCNC(=O)Nc1cccc2c1[nH]c1ncnc(NN3C(=O)CCC3(C)C)c12 [AVI-4206]
potency (in words) (Mac1): double-digit nanomolar

Source: paper PMC12118597 (Science Advances, 2025)
